Laboratory results published in US12264173B2 (GILEAD SCIENCES, INC., priority 2020, dated 2025).
Read-outs that look alike come from different tables or passages of the source.

Columns and labels:
RSV A2 = assay: RSV NHBE EC50 (RSV A2 antiviral assay in NHBE cells); format: cell-based; details: read-out: RSV NHBE EC50
Description: Normal human bronchial epithelial (NHBE) cells were purchased from Lonza (Walkersville, MD, Cat #CC-2540) and cultured in Bronchial Epithelial Growth Media (BEGM) (Lonza, Walkersville, MD, Cat #CC-3170). The cells were passaged 1-2 times per week to maintain <80% confluency. The NHBE cells were discarded after 6 passages in culture.
To conduct the RSV A2 antiviral assay, NHBE cells were plated in 96-well plates at a density of 7,500 cells per well in BEGM and allowed to attach overnight at 37° C. Following attachment, 100 μL of cell culture media was removed and 3-fold serially diluted compound was added using a Hewlett-Packard D300 Digital Dispenser. The final concentration of DMSO was normalized to 0.05%. Following compound addition, the NHBE cells were infected by the addition of 100 μL of RSV A2 at a titer of 1×10^4.5 tissue culture infectious doses/mL in BEGM and then incubated at 37° C. for 4 days. The NHBE cells were then allowed to equilibrate to 25° C. and cell viability was determined by removing 100 μL of culture medium and adding 100 μL of Cell-Titer Glo viability reagent. The mixtures were incubated for 10 minutes at 25° C., and the luminescence signal was quantified on an Envision luminescence plate reader.

RSV strain A2 = assay: microbe, parasite or virus in culture; format: cell-based; details: read-out: RSV HEp-2 EC50
Description: Antiviral activity against RSV is determined using an infectious cytopathic cell protection assay in HEp-2 cells. In this assay, compounds inhibiting viral infection and/or replication produce a cytoprotective effect against the virus-induced cell killing that can be quantified using a cell viability reagent. The techniques used here are novel adaptations of methods described in published literature (Chapman et al., Antimicrob Agents Chemother. 2007, 51(9):3346-53.).
HEp-2 cells are obtained from ATCC (Manassas, VI) and maintained in MEM media supplemented with 10% fetal bovine serum and penicillin/streptomycin. Cells are passaged twice a week and kept at subconfluent stage. Commercial stock of RSV strain A2 (Advanced Biotechnologies, Columbia, MD) is titered before compound testing to determine the appropriate dilution of the virus stock that generates desirable cytopathic effect in HEp-2 cells.
For antiviral tests, HEp-2 cells are grown in large cell culture flasks to near confluency but not fully so. The compounds to be tested are prediluted in DMSO in 384-well compound dilution plates, either in an 8 or 40 sample per plate standardized dose response format. 3-fold serial dilution increments of each test compound are prepared in the plates and test samples are transferred via acoustic transfer apparatus (Echo, Labcyte) at 100 nL per well into cell culture assay 384-well plates. Each compound dilution is transferred in single or quadruplicate samples into dry assay plates, which are stored until assay is ready to go. The positive and negative controls are laid out in opposite on ends of the plate in vertical blocks (1 column).
Subsequently, an infectious mixture is prepared using an appropriate dilution of virus stock previously determined by titration with cells at a density of 50,000/mL and 20 µL/well is added to test plates w/compounds via automation (uFlow, Biotek). Each plate includes negative and positive controls (16 replicates each) to create 0% and 100% virus inhibition standards, respectively. Following the infection with RSV, testing plates are incubated for 4 days in a 37° C. cell culture incubator. After the incubation, a cell viability reagent, Cell TiterGlo (Promega, Madison, WI) is added to the assay plates, which are incubated briefly, and a luminescent readout is measured (Envision, Perkin Elmer) in all the assay plates. The RSV-induced cytopathic effect, percentage inhibition, is determined from the levels of remaining cell viability. […] Various potent anti-RSV tool compounds are used as positive controls for antiviral activity.

[1] = human respiratory syncytial virus, NHBE, 96 h, Table 3, NHBE cells, RSV A2, 4 days
[2] = human respiratory syncytial virus, HEp-2, 96 h, Table 3, HEp-2 cells, RSV A2, 4 days
[3] = Table 3, HEp-2 cells, RSV A2, 4 days
[4] = Table 3, NHBE cells, RSV A2, 4 days

CCCCOC(=O)[C@H](C)NP(=O)(OC[C@@]1(C#N)O[C@@H](c2ccc3c(N)ncnn23)[C@H](OC(=O)C(C)C)[C@@H]1OC(=O)C(C)C)Oc1ccccc1 (mixture of isomers) [Example 225, (2R,3S,4S,5S)-5-(4-aminopyrrolo[2,1-f][1,2,4]triazin-7-yl)-2-((((((S)-1-butoxy-1-oxopropan-2-yl)amino)(phenoxy)phosphoryl)oxy)methyl)-2-cyanotetrahydrofuran-3,4-diyl bis(2-methylpropanoate)]
EC50 (RSV A2; [1]): 0.014 µM

CCOC(=O)[C@H](C)NP(=O)(OC[C@@]1(C#N)O[C@@H](c2ccc3c(N)ncnn23)[C@H](OC(=O)C(C)C)[C@@H]1OC(=O)C(C)C)Oc1ccccc1 (mixture of isomers) [Example 248, (2R,3S,4S,5S)-5-(4-aminopyrrolo[2,1-f][1,2,4]triazin-7-yl)-2-cyano-2-((((((S)-1-ethoxy-1-oxopropan-2-yl)amino)(phenoxy)phosphoryl)oxy)methyl)tetrahydrofuran-3,4-diyl bis(2-methylpropanoate)]
EC50 (RSV strain A2; [2]): 0.023 µM

CCCCOC(=O)C(C)NP(=O)(OCC1(C#N)OC(c2ccc3c(N)ncnn23)C(OC(=O)C(C)C)C1OC(=O)C(C)C)Oc1ccccc1 (single isomer, unassigned) [Example 226]
EC50 (RSV strain A2; [3]): 0.009 µM | EC50 (RSV A2; [4]): 0.009 µM

CCCCOC(=O)C(C)NP(=O)(OCC1(C#N)OC(c2ccc3c(N)ncnn23)C(OC(=O)C(C)C)C1OC(=O)C(C)C)Oc1ccccc1 (single isomer, unassigned) [Example 227]
EC50 (RSV strain A2; [3]): 0.017 µM | EC50 (RSV A2; [4]): 0.012 µM

CC(C)C(=O)OC1C(c2ccc3c(N)ncnn23)OC(C#N)(COP(=O)(NC(C)C(=O)OC2CCN(C)C2)Oc2ccccc2)C1OC(=O)C(C)C (single isomer, unassigned) [Example 233]
EC50 (RSV strain A2; [3]): 0.127 µM | EC50 (RSV A2; [4]): 0.029 µM

CC(C)C(=O)O[C@H]1[C@H](c2ccc3c(N)ncnn23)O[C@](C#N)(COP(=O)(N[C@@H](C)C(=O)O[C@@H]2CCOC2)Oc2ccccc2)[C@H]1OC(=O)C(C)C (single isomer, unassigned) [Example 243]
EC50 (RSV strain A2; [3]): 0.015 µM | EC50 (RSV A2; [1]): 0.011 µM

CC(C)C(=O)O[C@H]1[C@H](c2ccc3c(N)ncnn23)O[C@](C#N)(COP(=O)(N[C@@H](C)C(=O)O[C@@H]2CCOC2)Oc2ccccc2)[C@H]1OC(=O)C(C)C (single isomer, unassigned) [Example 244]
EC50 (RSV strain A2; [3]): 0.063 µM | EC50 (RSV A2; [4]): 0.021 µM

CCOC(=O)[C@H](C)N[P@@](=O)(OC[C@@]1(C#N)O[C@@H](c2ccc3c(N)ncnn23)[C@H](OC(=O)C(C)C)[C@@H]1OC(=O)C(C)C)Oc1ccccc1 (single isomer, unassigned) [Example 249]
EC50 (RSV strain A2; [2]): 0.047 µM | EC50 (RSV A2; [1]): 0.024 µM

CCOCCOCCOC(=O)[C@H](C)NP(=O)(OC[C@@]1(C#N)O[C@@H](c2ccc3c(N)ncnn23)[C@H](OC(=O)C(C)C)[C@@H]1OC(=O)C(C)C)Oc1ccccc1 (single isomer, unassigned) [Example 263]
EC50 (RSV strain A2; [2]): 0.023 µM

CCC(=O)OC1[C@H](c2ccc3c(N)ncnn23)O[C@](C#N)(COP(=O)(N[C@@H](C)C(=O)OCC2CC2)Oc2ccccc2)[C@H]1OC(=O)CC (stereo in doubt) [Example 98, (2R,3S,4R,5S)-5-(4-aminopyrrolo[2,1-f][1,2,4]triazin-7-yl)-2-cyano-2-((((((S)-1-(cyclopropylmethoxy)-1-oxopropan-2-yl)amino)(phenoxy)phosphoryl)oxy)methyl) tetrahydrofuran-3,4-diyl dipropionate]
EC50 (RSV strain A2; [2]): 0.048 µM | EC50 (RSV A2; [1]): 0.017 µM

CC(=O)O[C@H]1[C@H](c2ccc3c(N)ncnn23)O[C@](C#N)(CO[P@@](=O)(N[C@@H](C)C(=O)OC2CCCCC2)Oc2ccccc2)[C@H]1OC(C)=O [Example 81, (2R,3S,4S,5S)-5-(4-aminopyrrolo[2,1-f][1,2,4]triazin-7-yl)-2-cyano-2-((((S)-(((S)-1-(cyclohexyloxy)-1-oxopropan-2-yl)amino)(phenoxy)phosphoryl)oxy)methyl) tetrahydrofuran-3,4-diyl diacetate]
EC50 (RSV strain A2; [2]): 0.194 µM | EC50 (RSV A2; [1]): 0.022 µM

CCOC(=O)[C@H](C)NP(=O)(N[C@@H](C)C(=O)OCC)OC[C@@]1(C#N)O[C@@H](c2ccc3c(NC(=O)C(C)C)ncnn23)[C@H](OC(=O)C(C)C)[C@@H]1OC(=O)C(C)C [Example 145, ((2R,3S,4R,5S)-5-(4-isobutyramidopyrrolo[2,1-f][1,2,4]triazin-7-yl)-2-cyano-3,4-diisobutylatetetrahydrofuran-2-yl)methyl bis-ethyl L-alaninate phosphate]
EC50 (RSV A2; [1]): 0.04 µM

CC(C)C(=O)O[C@H]1[C@H](c2ccc3c(N)ncnn23)O[C@](C#N)(COP(=O)(N[C@@H](C)C(=O)OCCN2CCOCC2)Oc2ccccc2)[C@H]1OC(=O)C(C)C (stereo partly drawn) [Example 223, (2R,3S,4S,5S)-5-(4-aminopyrrolo[2,1-f][1,2,4]triazin-7-yl)-2-cyano-2-((((((S)-1-(2-morpholinoethoxy)-1-oxopropan-2-yl)amino)(phenoxy)phosphoryl)oxy)methyl) tetrahydrofuran-3,4-diyl bis(2-methylpropanoate)]
EC50 (RSV strain A2; [2]): 1.72 µM | EC50 (RSV A2; [1]): 0.223 µM

COC(=O)[C@H](C)NP(=O)(O)OC[C@@]1(C#N)O[C@@H](c2ccc3c(N)ncnn23)[C@H](OC(=O)C(C)C)[C@@H]1OC(=O)C(C)C [Example 242, ((2R,3S,4S,5S)-5-(4-aminopyrrolo[2,1-f][1,2,4]triazin-7-yl)-2-cyano-3,4-bis(isobutyryloxy)tetrahydrofuran-2-yl)methyl ((S)-1-methoxy-1-oxopropan-2-yl)phosphoramidate]
EC50 (RSV strain A2; [2]): 7.19 µM | EC50 (RSV A2; [1]): > 5 µM

COC(=O)[C@H](C)NP(=S)(OC[C@@]1(C#N)O[C@@H](c2ccc3c(N)ncnn23)[C@H](OC(=O)C(C)C)[C@@H]1OC(=O)C(C)C)Oc1ccccc1 (stereo partly drawn) [Example 250, (2R,3S,4S,5S)-5-(4-aminopyrrolo[2,1-f][1,2,4]triazin-7-yl)-2-cyano-2-((((((S)-1-methoxy-1-oxopropan-2-yl)amino)(phenoxy)phosphorothioyl)oxy)methyl) tetrahydrofuran-3,4-diyl bis(2-methylpropanoate)]
EC50 (RSV strain A2; human respiratory syncytial virus, HEp-2, 96 h): 3.93 µM | EC50 (RSV A2; human respiratory syncytial virus, NHBE, 96 h): 2.42 µM

CC(C)C(=O)O[C@H]1[C@H](c2ccc3c(N)ncnn23)O[C@](C#N)(COP(=O)(N[C@@H](C)C(=O)OCC(C)(C)O)Oc2ccccc2)[C@H]1OC(=O)C(C)C (stereo partly drawn) [Example 256, (2R,3S,4S,5S)-5-(4-aminopyrrolo[2,1-f][1,2,4]triazin-7-yl)-2-cyano-2-((((((S)-1-(2-hydroxy-2-methylpropoxy)-1-oxopropan-2-yl)amino)(phenoxy)phosphoryl)oxy)methyl)tetrahydrofuran-3,4-diyl bis(2-methylpropanoate)]
EC50 (RSV A2; [1]): 0.02 µM

CC(C)C(=O)O[C@H]1[C@H](c2ccc3c(N)ncnn23)O[C@](C#N)(COP(=O)(N[C@@H](C)C(=O)OCC(C)(C)OP(=O)(O)O)Oc2ccccc2)[C@H]1OC(=O)C(C)C (stereo partly drawn) [Example 262, (2R,3S,4S,5S)-5-(4-aminopyrrolo[2,1-f][1,2,4]triazin-7-yl)-2-cyano-2-((((((S)-1-(2-methyl-2-(phosphonooxy)propoxy)-1-oxopropan-2-yl)amino)(phenoxy)phosphoryl)oxy)methyl)tetrahydrofuran-3,4-diyl bis(2-methylpropanoate)]
EC50 (RSV strain A2; [2]): 0.163 µM
